Tests used:
HT-29 [1] = experiment: Antitumor activity against human HT-29 cells assessed as upregulation of HSPA1A mRNA expression at 2 nM after 6 hrs relative to control; type: functional
U2OS [2] = experiment: Cell cycle arrest in human U2OS cells assessed as accumulation at S phase at 50 nM after 48 hrs by FACS analysis (reference value: 37.3%); type: functional
PC-3 = experiment: Cytotoxicity against human PC3 cells by sulforhodamine B assay; type: functional
K562 = experiment: Cytotoxicity against human K562 cells by sulforhodamine B assay; type: functional
MDA-MB-435 = experiment: Cytotoxicity against human MDA-MB-435 cells by sulforhodamine B assay; type: functional
SN12C = experiment: Cytotoxicity against human SN12C cells by sulforhodamine B assay; type: functional
Malme-3M = experiment: Cytotoxicity against human MALME-3M cells by sulforhodamine B assay; type: functional
HT-29 [3] = experiment: Antitumor activity against human HT-29 cells assessed as down-regulation of GTSE1 mRNA expression at 10 nM after 3 hrs relative to control; type: functional
HT-29 [4] = experiment: Antitumor activity against human HT-29 cells assessed as down-regulation of RAB11B mRNA expression at 2 nM after 12 hrs relative to control; type: functional
SF-539 = experiment: Cytotoxicity against human SF539 cells by sulforhodamine B assay; type: functional
LOX IMVI = experiment: Cytotoxicity against human LOXIMVI cells by sulforhodamine B assay; type: functional
[5] = Cytotoxicity against resting human CD4+ T cell assessed as cell viability after 3 days by fluorescence detection method; type: cell-based; settings: 72 h
HT-29 [6] = experiment: Antitumor activity against human HT-29 cells assessed as upregulation of MGC4504 mRNA expression at 10 nM after 3 hrs relative to control; type: functional
MCF7 = experiment: Cytotoxicity against human MCF7 cells by sulforhodamine B assay; type: functional
HT-29 [7] = experiment: Antitumor activity against human HT-29 cells assessed as down-regulation of CCNE2 mRNA expression at 2 nM after 12 hrs relative to control; type: functional
HT-29 [8] = experiment: Antitumor activity against human HT-29 cells assessed as down-regulation of CDC25A mRNA expression at 2 nM after 3 hrs relative to control; type: functional
U2OS [9] = experiment: Cell cycle arrest in human U2OS cells assessed as accumulation at S phase at 5 nM after 24 hrs by FACS analysis (reference value: 37.3%); type: functional
HT-29 [10] = experiment: Antitumor activity against human HT-29 cells assessed as down-regulation of CDC25A mRNA expression at 10 nM after 6 hrs relative to control; type: functional
TK-10 = experiment: Cytotoxicity against human TK10 cells by sulforhodamine B assay; type: functional
HT-29 [11] = experiment: Antitumor activity against human HT-29 cells assessed as upregulation of KCNK10 mRNA expression at 10 nM after 12 hrs relative to control; type: functional
SF-295 = experiment: Cytotoxicity against human SF295 cells by sulforhodamine B assay; type: functional
HT-29 [12] = experiment: Antitumor activity against human HT-29 cells assessed as down-regulation of TAL1 mRNA expression at 2 nM after 12 hrs relative to control; type: functional
HT-29 [13] = experiment: Antitumor activity against human HT-29 cells assessed as down-regulation of RAB11B mRNA expression at 2 nM after 3 hrs relative to control; type: functional
SF-268 = experiment: Cytotoxicity against human SF268 cells by sulforhodamine B assay; type: functional
HT-29 [14] = experiment: Antitumor activity against human HT-29 cells assessed as upregulation of DDIT4 mRNA expression at 2 nM after 3 hrs relative to control; type: functional
OVCAR-5 = experiment: Cytotoxicity against human OVCAR5 cells by sulforhodamine B assay; type: functional
MOLT-4 = experiment: Cytotoxicity against human MOLT4 cells by sulforhodamine B assay; type: functional
A549 = experiment: Cytotoxicity against human A549 cells by sulforhodamine B assay; type: functional
U2OS [15] = experiment: Cell cycle arrest in human U2OS cells assessed as accumulation at G1 phase at 5 nM after 48 hrs by FACS analysis (reference value: 49.8%); type: functional
EKVX = experiment: Cytotoxicity against human EKVX cells by sulforhodamine B assay; type: functional
HT-29 [16] = experiment: Antitumor activity against human HT-29 cells assessed as upregulation of KCNK10 mRNA expression at 2 nM after 12 hrs relative to control; type: functional
HT-29 [17] = experiment: Antitumor activity against human HT-29 cells assessed as upregulation of KCNK10 mRNA expression at 10 nM after 6 hrs relative to control; type: functional
HT-29 [18] = experiment: Antitumor activity against human HT-29 cells assessed as upregulation of MGC4504 mRNA expression at 10 nM after 12 hrs relative to control; type: functional
OVCAR-8 = experiment: Cytotoxicity against human OVCAR8 cells by sulforhodamine B assay; type: functional
COLO 205 = experiment: Cytotoxicity against human COLO205 cells by sulforhodamine B assay; type: functional
HT-29 [19] = experiment: Antitumor activity against human HT-29 cells assessed as down-regulation of GTSE1 mRNA expression at 2 nM after 12 hrs relative to control; type: functional
HL-60(TB) = experiment: Cytotoxicity against human HL-60(TB) cells by sulforhodamine B assay; type: functional
HT-29 [20] = experiment: Antitumor activity against human HT-29 cells assessed as upregulation of DDIT4 mRNA expression at 10 nM after 3 hrs relative to control; type: functional
HT-29 [21] = experiment: Antitumor activity against human HT-29 cells assessed as upregulation of RASSF4 mRNA expression at 2 nM after 3 hrs relative to control; type: functional
HT-29 [22] = experiment: Antitumor activity against human HT-29 cells assessed as down-regulation of TAL1 mRNA expression at 2 nM after 6 hrs relative to control; type: functional
HT-29 [23] = experiment: Antitumor activity against human HT-29 cells assessed as upregulation of MGC4504 mRNA expression at 10 nM after 6 hrs relative to control; type: functional
U2OS [24] = experiment: Cell cycle arrest in human U2OS cells assessed as accumulation at S phase at 5 nM after 48 hrs by FACS analysis (reference value: 37.3%); type: functional
[25] = Cytotoxicity against human […] cells by sulforhodamine B assay; type: functional
U2OS [26] = experiment: Cell cycle arrest in human U2OS cells assessed as accumulation at G1 phase at 50 nM after 24 hrs by FACS analysis (reference value: 49.8%); type: functional
SK-OV-3 = experiment: Cytotoxicity against human SKOV3 cells by sulforhodamine B assay; type: functional
HT-29 [27] = experiment: Antitumor activity against human HT-29 cells assessed as down-regulation of TAL1 mRNA expression at 10 nM after 3 hrs relative to control; type: functional
SK-MEL-2 = experiment: Cytotoxicity against human SK-MEL-2 cells by sulforhodamine B assay; type: functional
M14 = experiment: Cytotoxicity against human M14 cells by sulforhodamine B assay; type: functional
HT-29 [28] = experiment: Antitumor activity against human HT-29 cells assessed as upregulation of KCNK10 mRNA expression at 2 nM after 3 hrs relative to control; type: functional
MDA-MB-231 = experiment: Cytotoxicity against human MDA-MB-231 cells by sulforhodamine B assay; type: functional
[29] = read-out: LC50 (the source's name)

In the case of `CC[C@H](C)[C@H]1C(=O)N2CCC[C@H]2C(=O)O[C@H](C(C)(C)C)C[C@@H](C)C[C@H](O)[C@H](C)C2=N[C@@H](/C=C(\C)C(=O)N[C@@H](Cc3ccc(OC)cc3)C(=O)N(C)[C@@H](C)C(=O)N1C)CS2` [APRATOXIN A], the “fold change (FC)” value (HT-29 [1]) is reported as 2.56, the inhibition at 0.05 µM (U2OS [2]) is reported as 0.8% and the GI50 (PC-3) is reported as 4.96 nM. It also gave a GI50 (K562) of 14.8 nM, a GI50 (MDA-MB-435) of 3.35 nM and a GI50 (SN12C) of 3.94 nM. For the same compound, the GI50 (Malme-3M) was 4.77 nM, the “fold change (FC)” value (HT-29 [3]) was “<=2” and the “fold change (FC)” value (HT-29 [4]) was “<=2”. For the same compound, the GI50 (SF-539) was 0.503 nM, the CC50 (SF-539; [29]) was 69.4 nM and the GI50 (LOX IMVI) was 2.3 nM. For the same compound, the CC50 (LOX IMVI; [29]) was 23.2 nM, the IC50 [5] was 1800 nM and the “fold change (FC)” value (HT-29 [6]) was “<=2”. The GI50 (MCF7) was 6.57 nM, the “fold change (FC)” value (HT-29 [7]) was “<=2” and the “fold change (FC)” value (HT-29 [8]) was “<=2”. The inhibition at 0.005 µM (U2OS [9]) was 28.2%, the “fold change (FC)” value (HT-29 [10]) was “<=2” and the GI50 (TK-10) was 2.63 nM. For the same compound, the “fold change (FC)” value (HT-29 [11]) was “<=2”, the GI50 (SF-295) was 1.26 nM and the CC50 (SF-295; [29]) was 70.3 nM. For the same compound, the “fold change (FC)” value (HT-29 [12]) was “<=2”, the “fold change (FC)” value (HT-29 [13]) was -3.68 and the GI50 (SF-268) was 50.8 nM. For the same compound, the “fold change (FC)” value (HT-29 [14]) was 2.49, the GI50 (OVCAR-5) was > 100 nM and the GI50 (MOLT-4) was 48 nM. It also gave a GI50 (A549) of 5.38 nM, an inhibition at 0.005 µM (U2OS [15]) of 82.1% and a GI50 (EKVX) of 7.56 nM. For the same compound, the “fold change (FC)” value (HT-29 [16]) was “<=2”, the “fold change (FC)” value (HT-29 [17]) was 7.38 and the “fold change (FC)” value (HT-29 [18]) was 12.09. For the same compound, the GI50 (OVCAR-8) was 7.26 nM, the GI50 (COLO 205) was 2.71 nM and the “fold change (FC)” value (HT-29 [19]) was “<=2”. For the same compound, the GI50 (HL-60(TB)) was 0.851 nM, the “fold change (FC)” value (HT-29 [20]) was 4.09 and the “fold change (FC)” value (HT-29 [21]) was 12.65. For the same compound, the “fold change (FC)” value (HT-29 [22]) was “<=2”, the “fold change (FC)” value (HT-29 [23]) was 10.46 and the inhibition at 0.005 µM (U2OS [24]) was 5.5%. For the same compound, the GI50 [25] was 1.28 nM, the CC50 [25, 29] was 69 nM and the inhibition at 0.05 µM (U2OS [26]) was 68.3%. For the same compound, the GI50 (SK-OV-3) was 5.27 nM, the “fold change (FC)” value (HT-29 [27]) was “<=2” and the GI50 (SK-MEL-2) was > 100 nM. For the same compound, the GI50 (M14) was 2.09 nM, the “fold change (FC)” value (HT-29 [28]) was “<=2” and the GI50 (MDA-MB-231) was 1.46 nM.

— ChEMBL document CHEMBL1240307, “A functional genomics approach to the mode of action of apratoxin A” (Nat Chem Biol, 2006)
